In patent publication US8445505B2 (IRM LLC, priority 2008, dated 2013):

Biological target: IGF1R Ba/F3 (Homo sapiens, UniProt P08069)
Test: Ba/F3 Cell Viability Inhibition Assay (Tel-TK transformed Ba/F3 lines)
Type: cell-based, murine
Design: the printed alternative
Settings: Tel-TK (IGF1R) transformed Ba/F3 cells, 48 hours incubation, cell viability (Britelite luminescence)
Text: Ba/F3 is a murine IL-3-dependent pro-B lymphoma cell line. Parental Ba/F3 cells are used to generate a panel of sublines whose proliferation and survival is rendered IL-3-independent by stable transduction with individual tyrosine kinases activated by fusion with the amino-terminal portion of TEL (amino acid 1-375) or BCR. In order to generate Ba/F3 cell lines transformed by Tel-Tyrosine Kinase (TK) fusions, parental Ba/F3 cells are infected with a retrovirus harboring each TEL-fusion kinase and subjected to puromycin selection and IL-3 withdrawal to obtain IL-3-independent, transformed Ba/F3 cells.
Each transformed Ba/F3 cells are cultured in RPMI-1640 media (Gibco Cat #11875093, Carlsbad, Calif.) supplemented with 10% FBS (Hyclone Cat #SV30014.03, Logan, Utah), 4.5 g/L glucose (Sigma #G5400, St.Louis, Mo.), 1.5 g/L sodium bicarbonate (Biowhittaker #17-613E, Walkersville, Md.) and Pen/Strep (Gibco #10378-016, Carlsbad, Calif.). Cells are splitted twice weekly.
The potency of test compounds against various Tel-TK transformed Ba/F3 lines is determined as follows. Exponentially growing BaF3 Tel-TK cells are diluted in fresh medium to 75,000 cells/mL and seeded into 384-well plates (3750 cells/well) at 50 μL/well using a gill liquid dispenser (BioTek, Winooski, Vt., USA). Duplicate plates are run for each cell line. Test and control compounds are serially diluted with DMSO and arrayed in a polypropylene 384-well plate. 50 nL of compound is transferred into the assay plates using a pin-transfer device, and the plates are incubated at 37° C. (5% CO2) for 48 hours. 25 μL Britelite (Perkin Elmer) is added and luminescence is quantified using Analyst GT (Molecular Devices). Custom curve-fitting software is used to produce a logistic fit of percent cell viability as a function of the logarithm of inhibitor concentration. The IC50 is interpolated as the concentration of compound needed to reduce cell viability to 50% of a DMSO control. Parental Ba/F3 cells that are maintained and cultured in presence of IL-3 (1 ng/ml in final) are diluted in fresh medium containing IL-3 (1 ng/ml in final) to 75,000 cells/mL following the same procedure as described above.

Sequence of IGF1R Ba/F3 (P08069 999-1274 limits assumed): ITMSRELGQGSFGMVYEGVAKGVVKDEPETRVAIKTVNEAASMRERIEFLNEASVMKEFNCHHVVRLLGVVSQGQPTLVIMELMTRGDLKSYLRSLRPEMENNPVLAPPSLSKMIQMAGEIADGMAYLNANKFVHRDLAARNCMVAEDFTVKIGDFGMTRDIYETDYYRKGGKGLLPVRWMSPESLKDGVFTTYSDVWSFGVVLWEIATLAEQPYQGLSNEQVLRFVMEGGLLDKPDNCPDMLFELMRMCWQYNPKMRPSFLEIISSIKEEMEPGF

Compound	IC50 [nM]
Cc1cc(Nc2nc(Nc3cc(C)c([C@H]4CC[C@H](N5CCNCC5)CC4)cc3F)ncc2Cl)n[nH]1 [Compound 59, 5-chloro-N2-(2-fluoro-5-methyl-4-((trans)-4-(piperazin-1-yl)cyclohexyl)phenyl)-N4-(5-methyl-1H-pyrazol-3-yl)pyrimidine-2,4-diamine]	39
Cc1cc(Nc2nc(Nc3cc(C)c([C@H]4CC[C@@H](N5CCCCC5)CC4)cc3C)ncc2C(F)(F)F)n[nH]1 [Compound 60, N2-(2,5-dimethyl-4-((cis)-4-(piperidin-1-yl)cyclohexyl)phenyl)-N4-(5-methyl-1H-pyrazol-3-yl)-5-(trifluoromethyl)pyrimidine-2,4-diamine]	4
Cc1cc(Nc2nc(Nc3cc(C)c([C@H]4CC[C@H](N5CCCCC5)CC4)cc3C)ncc2C(F)(F)F)n[nH]1 [Compound 61, N2-(2,5-dimethyl-4-((trans)-4-(piperidin-1-yl)cyclohexyl)phenyl)-N4-(5-methyl-1H-pyrazol-3-yl)-5-(trifluoromethyl)pyrimidine-2,4-diamine]	3
Cc1cc(Nc2nc(Nc3cc(C)c([C@H]4CC[C@@H](N5CCCCC5)CC4)cc3F)ncc2C(F)(F)F)n[nH]1 [Compound 62, N^2-(2-fluoro-5-methyl-4-(cis-4-(piperidin-1-yl)cyclohexyl)phenyl)-N^4-(5-methyl-1H-pyrazol-3-yl)-5-(trifluoromethyl)pyrimidine-2,4-diamine]	18
Cc1cc(Nc2nc(Nc3cc(C)c([C@H]4CC[C@H](N5CCCCC5)CC4)cc3F)ncc2C(F)(F)F)n[nH]1 [Compound 63, N^2-(2-fluoro-5-methyl-4-(trans-4-(piperidin-1-yl)cyclohexyl)phenyl)-N^4-(5-methyl-1H-pyrazol-3-yl)-5-(trifluoromethyl)pyrimidine-2,4-diamine]	16
Cc1cc(Nc2nc(Nc3cc(C)c([C@H]4CC[C@@H](N5CCOCC5)CC4)cc3F)ncc2C(F)(F)F)n[nH]1 [Compound 64, N2-(2-fluoro-5-methyl-4-((cis)-4-morpholinocyclohexyl)phenyl)-N4-(5-methyl-1H-pyrazol-3-yl)-5-(trifluoromethyl)pyrimidine-2,4-diamine]	50
Cc1cc(Nc2nc(Nc3cc(C)c([C@H]4CC[C@H](N5CCOCC5)CC4)cc3F)ncc2C(F)(F)F)n[nH]1 [Compound 65, N2-(2-fluoro-5-methyl-4-((trans)-4-morpholinocyclohexyl)phenyl)-N4-(5-methyl-1H-pyrazol-3-yl)-5-(trifluoromethyl)pyrimidine-2,4-diamine]	32
Cc1cc(Nc2nc(Nc3cc(C)c([C@H]4CC[C@@H](N5CCOCC5)CC4)cc3C)ncc2C(F)(F)F)n[nH]1 [Compound 66, N^2-(2,5-dimethyl-4-(cis-4-morpholinocyclohexyl)phenyl)-N^4-(5-methyl-1H-pyrazol-3-yl)-5-(trifluoromethyl)pyrimidine-2,4-diamine]	14
Cc1cc(Nc2nc(Nc3cc(C)c([C@H]4CC[C@H](N5CCOCC5)CC4)cc3C)ncc2C(F)(F)F)n[nH]1 [Compound 67, N^2-(2,5-dimethyl-4-(trans-4-morpholinocyclohexyl)phenyl)-N^4-(5-methyl-1H-pyrazol-3-yl)-5-(trifluoromethyl)pyrimidine-2,4-diamine]	9
Cc1cc(Nc2nc(Nc3cc(C)c([C@H]4CC[C@@H](N5C[C@H](O)[C@@H](O)C5)CC4)cc3F)ncc2C(F)(F)F)n[nH]1 [Compound 68, (3S,4S)-1-((cis)-4-(5-fluoro-2-methyl-4-(4-(5-methyl-1H-pyrazol-3-ylamino)-5-(trifluoromethyl)pyrimidin-2-ylamino)phenyl)cyclohexyl)pyrrolidine-3,4-diol]	120
Cc1cc(Nc2nc(Nc3cc(C)c([C@H]4CC[C@H](N5C[C@H](O)[C@@H](O)C5)CC4)cc3F)ncc2C(F)(F)F)n[nH]1 [Compound 69, (3S,4S)-1-((trans)-4-(5-fluoro-2-methyl-4-(4-(5-methyl-1H-pyrazol-3-ylamino)-5-(trifluoromethyl)pyrimidin-2-ylamino)phenyl)cyclohexyl)pyrrolidine-3,4-diol]	302
Cc1cc(Nc2nc(Nc3cc(C)c([C@H]4CC[C@H](N5C[C@@H](O)[C@H](O)C5)CC4)cc3F)ncc2C(F)(F)F)n[nH]1 [Compound 70, (3R,4R)-1-((trans)-4-(5-fluoro-2-methyl-4-(4-(5-methyl-1H-pyrazol-3-ylamino)-5-(trifluoromethyl)pyrimidin-2-ylamino)phenyl)cyclohexyl)pyrrolidine-3,4-diol]	248
Cc1cc(Nc2nc(Nc3cc(C)c([C@H]4CC[C@@H](N5C[C@@H](O)[C@H](O)C5)CC4)cc3F)ncc2C(F)(F)F)n[nH]1 [Compound 71, (3R,4R)-1-((cis)-4-(5-fluoro-2-methyl-4-(4-(5-methyl-1H-pyrazol-3-ylamino)-5-(trifluoromethyl)pyrimidin-2-ylamino)phenyl)cyclohexyl)pyrrolidine-3,4-diol]	109
Cc1cc(Nc2nc(Nc3cc(C)c([C@H]4CC[C@H](O)CC4)cc3F)ncc2Cl)n[nH]1 [Compound 72, Trans-4-(4-(5-chloro-4-(5-methyl-1H-pyrazol-3-ylamino)pyrimidin-2-ylamino)-5-fluoro-2-methylphenyl)cyclohexanol]	99
Cc1cc(Nc2nc(Nc3cc(C)c([C@H]4CC[C@@H](O)CC4)cc3F)ncc2Cl)n[nH]1 [Compound 73, Cis-4-(4-(5-chloro-4-(5-methyl-1H-pyrazol-3-ylamino)pyrimidin-2-ylamino)-5-fluoro-2-methylphenyl)cyclohexanol]	32
Cc1cc(Nc2nc(Nc3cc(C)c(-c4ccc5c(c4)CCNC5)cc3C)ncc2Cl)n[nH]1 [Compound 74, 5-chloro-N2-(2,5-dimethyl-4-(1,2,3,4-tetrahydroisoquinolin-6-yl)phenyl)-N4-(5-methyl-1H-pyrazol-3-yl)pyrimidine-2,4-diamine]	87
Cc1cc(Nc2nc(Nc3cc(C)c(-c4ccc5c(c4)CCN(C)C5)cc3C)ncc2Cl)n[nH]1 [Compound 75, 5-chloro-N2-(2,5-dimethyl-4-(2-methyl-1,2,3,4-tetrahydroisoquinolin-6-yl)phenyl)-N4-(5-methyl-1H-pyrazol-3-yl)pyrimidine-2,4-diamine]	54
Cc1cc(Nc2nc(Nc3ccc(C4CCN(CC(N)=O)CC4)c(C)n3)ncc2Cl)n[nH]1 [Compound 76, 2-(4-(6-(5-chloro-4-(5-methyl-1H-pyrazol-3-ylamino)pyrimidin-2-ylamino)-2-methylpyridin-3-yl)piperidin-1-yl)acetamide]	1790
Cc1cc(Nc2nc(Nc3ccc(C4CCN(CC(N)=O)CC4)c4ccncc34)ncc2Cl)n[nH]1 [Compound 77, 2-(4-(8-(5-chloro-4-(5-methyl-1H-pyrazol-3-ylamino)pyrimidin-2-ylamino)isoquinolin-5-yl)piperidin-1-yl)acetamide]	3300
Cc1cc(Nc2nc(Nc3ccc(C4CCN(CCS(C)(=O)=O)CC4)c4cccnc34)ncc2Cl)n[nH]1 [Compound 78, 5-chloro-N4-(5-methyl-1H-pyrazol-3-yl)-N2-(5-(1-(2-(methylsulfonyl)ethyl)piperidin-4-yl)quinolin-8-yl)pyrimidine-2,4-diamine]	412
